# PubChem BioAssay AID1033 (Sanford-Burnham Center for Chemical Genomics, 2008)
# Active and inactive are the calls of the source. The rule behind the calls is not given here.
# Target: Chaperone protein DnaK (Escherichia coli (strain K12)) (UniProt P0A6Y8)
# Experiment: E. coli DnaK SBD ligand binding – biophysical, NMR, chaperone (AID 1033)
# Settings: Purified DnaK SBD
# Chain of Chaperone protein DnaK (Escherichia coli (strain K12)) (P0A6Y8 whole entry, looked up): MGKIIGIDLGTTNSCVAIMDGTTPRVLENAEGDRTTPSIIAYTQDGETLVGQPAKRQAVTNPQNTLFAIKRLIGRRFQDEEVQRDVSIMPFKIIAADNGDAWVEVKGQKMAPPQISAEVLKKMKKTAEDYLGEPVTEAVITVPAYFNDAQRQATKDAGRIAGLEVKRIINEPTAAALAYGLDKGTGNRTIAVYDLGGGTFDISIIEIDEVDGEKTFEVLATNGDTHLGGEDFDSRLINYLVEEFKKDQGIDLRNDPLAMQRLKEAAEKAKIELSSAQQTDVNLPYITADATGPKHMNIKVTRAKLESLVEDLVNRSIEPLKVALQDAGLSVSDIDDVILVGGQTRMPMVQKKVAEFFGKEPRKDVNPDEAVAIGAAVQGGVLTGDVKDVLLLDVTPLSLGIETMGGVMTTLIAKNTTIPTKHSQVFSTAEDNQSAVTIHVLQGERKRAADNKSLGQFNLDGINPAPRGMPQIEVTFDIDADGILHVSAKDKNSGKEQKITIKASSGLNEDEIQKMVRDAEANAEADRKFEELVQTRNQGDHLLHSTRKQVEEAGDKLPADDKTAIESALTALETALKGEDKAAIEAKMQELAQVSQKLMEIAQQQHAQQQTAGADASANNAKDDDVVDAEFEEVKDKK
row,Compound,Kd
1,NC(=O)CSc1ccc2nnc(-c3cccs3)n2n1,> 4 mM (inactive)
2,c1ccc(CCNc2ncnc3nc[nH]c23)cc1,> 4 mM (inactive)
3,NS(=O)(=O)c1ccc2c3c(cccc13)C(=O)N2,> 4 mM (inactive)
4,OCc1nccn1Cc1ccccc1,> 4 mM (inactive)
5,Cc1cc(=O)[nH]c(NCc2cccnc2)n1,> 4 mM (inactive)
6,O=C1CC(N2CCC(O)CC2)C(=O)N1c1ccc(F)cc1 (stereo unspecified),> 4 mM (inactive)
7,COc1c2c(cc3cc[n+](C)cc13)OCO2,> 4 mM (inactive)
8,CC1(NC(=O)NCc2ccccc2)CCS(=O)(=O)C1 (stereo unspecified),> 4 mM (inactive)
9,COc1nc(C)ccc1-c1noc(-c2ccncc2)n1,> 4 mM (inactive)
10,CC(=O)Oc1ccc(/C=C/c2cc(OC(C)=O)cc(OC(C)=O)c2)cc1,> 4 mM (inactive)
11,COc1ccc(NC(=O)C2CC(=O)N=C(N)S2)cc1 (stereo unspecified),> 4 mM (inactive)
12,Nc1ccccc1OC(F)(F)F,> 4 mM (inactive)
13,CN1CCC(NC(=O)c2cnccn2)CC1,> 4 mM (inactive)
14,CCSc1nc(=S)n(CC)c(C)c1C(C)=O,> 4 mM (inactive)
15,O=C(O)CCN1CCOCC1,> 4 mM (inactive)
16,Cn1c(=O)[nH]c(=O)c2c1ncn2CCN1CCCCC1,> 4 mM (inactive)
17,NC(=O)c1cc(Cl)c(C(N)=O)cc1Cl,> 4 mM (inactive)
18,Cc1ccc(/C=N/n2c(C)nnc2C)cc1,> 4 mM (inactive)
19,NCc1cccc2c1OCCCO2,> 4 mM (inactive)
20,CSc1ccccc1NC(=O)c1ccncc1,> 4 mM (inactive)
21,CCc1noc(C)c1C(=O)Nc1ncc(C)s1,> 4 mM (inactive)
22,O=C1N=C(N2CCOCC2)S/C1=C\c1cccnc1,> 4 mM (inactive)
23,O=C1CSC(=O)N1CN1CCCC1,> 4 mM (inactive)
24,CN(C)C(=O)c1ccc(-c2n[nH]c(=O)c3ccccc23)cc1,> 4 mM (inactive)

row,Compound,Kd
1,O=C1Nc2ccc(S(=O)(=O)NCCO)c3cccc1c23,> 4 mM (inactive)
2,CN(C(N)=O)C1(C)CCS(=O)(=O)C1 (stereo unspecified),> 4 mM (inactive)
3,CN1CCN(CC(=O)NC2CCCCC2)CC1,> 4 mM (inactive)
4,COc1cc2cc3c4cc(OC)c(OC)cc4cc[n+]3c(C)c2cc1OC,> 4 mM (inactive)
5,NC(=O)c1ccccc1N=Cc1ccco1,> 4 mM (inactive)
6,Cc1cccc(NC(=O)Nc2cc(C)on2)c1,> 4 mM (inactive)
7,CCOC(=O)c1c(C)nc2sccn12,> 4 mM (inactive)
8,O=c1[nH]c(=S)c2c(n1-c1ccccc1)CCC2,> 4 mM (inactive)
9,CC1NC(C(=O)O)Cc2c1[nH]c1ccccc21 (stereo unspecified),> 4 mM (inactive)
10,C=C[C@@]1(C)CC(=O)[C@@]2(O)[C@](C)(O1)[C@@H](OC(C)=O)[C@@H](O)C1C(C)(C)CC[C@H](O)[C@@]12C (stereo partly specified),> 4 mM (inactive)
11,CN=C(C)c1c(O)n(C)c(=S)n(C)c1=O,> 4 mM (inactive)
12,COc1c(C(C)C)oc2cc3oc(=O)ccc3cc12,> 4 mM (inactive)
13,COc1ccccc1NC(=O)c1ccc(C)s1,> 4 mM (inactive)
14,OCn1nnn(-c2ccccc2)c1=S,> 4 mM (inactive)
15,CN(C)C(=O)Nc1ccc2c(c1)nnn2C,> 4 mM (inactive)
16,CNC(=O)c1c(O)c2ccccc2[nH]c1=O,> 4 mM (inactive)
17,O=[n+]1cc(-c2ccccc2)n([O-])c2c1CCC2,> 4 mM (inactive)
18,CCOC(=O)N1CCN(c2ncnc3c2cnn3C)CC1,> 4 mM (inactive)
19,O=C(O)c1ccc2c(c1)OCCO2,> 4 mM (inactive)
20,O=C(O)CNC(=O)c1ccccc1,> 4 mM (inactive)
21,CC(=O)Nc1nc(-c2cccs2)cs1,> 4 mM (inactive)
22,Cn1c(SCC(N)=O)nnc1-c1cccnc1,> 4 mM (inactive)
23,CC1(C)Cc2nc3[nH]c(=S)[nH]c(=O)c3cc2CO1,> 4 mM (inactive)
24,Cc1cc(C)n(-c2ccc(N)cc2)n1,> 4 mM (inactive)

row,Compound,Kd
1,COCC(=O)/C=C1\Sc2ccccc2N1C,> 4 mM (inactive)
2,O=C(CSc1ccc(Cl)cc1)N1CCOCC1,> 4 mM (inactive)
3,NC(=O)CNC(=O)c1ccccc1,> 4 mM (inactive)
4,O=C(O)C1CC(=O)N(CCc2ccc(Cl)cc2)C1 (stereo unspecified),> 4 mM (inactive)
5,CN1CCC[C@H]1c1cccnc1,> 4 mM (inactive)
6,Cc1oc(-c2ccccc2)cc1CO,> 4 mM (inactive)
7,C[C@H]1O[C@@H](O[C@H]2[C@@H](O)C[C@H](O[C@H]3[C@@H](O)C[C@H](O[C@H]4CC[C@]5(C)C6C[C@@H](O)[C@]7(C)[C@@H](C8=CC(=O)OC8)CC[C@]7(O)C6CC[C@@H]5C4)O[C@@H]3C)O[C@@H]2C)C[C@H](O)[C@@H]1O (stereo partly specified),> 4 mM (inactive)
8,Fc1cccc(Cl)c1CN1CCNCC1,> 4 mM (inactive)
9,CC(O)(C(=O)O)c1ccccc1 (stereo unspecified),> 4 mM (inactive)
10,CC(O)c1nc2ccccc2[nH]1 (stereo unspecified),> 4 mM (inactive)
11,COC(=O)C1=C(C)N(c2cccc(C(C)=O)c2)C(=O)C1,> 4 mM (inactive)
12,O=C(c1ccco1)N1C(=O)c2cccc3cccc1c23,> 4 mM (inactive)
13,CNC(Cc1c[nH]c2ccccc12)C(=O)O (stereo unspecified),> 4 mM (inactive)
14,O=C(O)c1cccnc1-c1nc2ccccc2s1,> 4 mM (inactive)
15,c1ccc(C[N+]23CCN(CC2)CC3)cc1,> 4 mM (inactive)
16,Cc1csc(NC(=O)c2ccoc2C)n1,> 4 mM (inactive)
17,COc1ccccc1/C=C\C(=O)O,> 4 mM (inactive)
18,Cc1cc(=O)n(CCc2ccccc2)c(O)c1C#N,> 4 mM (inactive)
19,CCOC(=O)c1cnc2cc(C)nn2c1C,> 4 mM (inactive)
20,COc1cc(C(=O)O[C@H]2CC[C@@]3(C)[C@@H]4CC[C@H]5[C@]6(O)C[C@H](O)[C@@]7(O)[C@@H](CN8C[C@@H](C)CC[C@H]8[C@@]7(C)O)[C@]6(O)C[C@@]53OC24O)cc(OC)c1OC,> 4 mM (inactive)
21,C/C(=N\NC(N)=S)C(=O)O,> 4 mM (inactive)
22,Cc1nn(CC(=O)N2CCCCC2)c(=O)c2ccccc12,> 4 mM (inactive)
23,Cc1cc(NC(=O)CCCn2cnc([N+](=O)[O-])n2)no1,> 4 mM (inactive)
24,CS(=O)(=O)Cc1ccccc1,> 4 mM (inactive)

row,Compound,Kd
1,CCCCCC1C(=O)CCC1CC(=O)O (stereo unspecified),> 4 mM (inactive)
2,C1CCN2C[C@@H]3C[C@H](CN4CCCC[C@@H]34)[C@H]2C1,> 4 mM (inactive)
3,CC(=O)N1N=C(N)SC1c1cccnc1 (stereo unspecified),> 4 mM (inactive)
4,Nc1nc2ccc(S(N)(=O)=O)cc2s1,> 4 mM (inactive)
5,COc1ccc([C@@H]2CC(=O)c3c(O)cc(O)cc3O2)cc1O,> 4 mM (inactive)
6,Cc1nnc(C)n1/N=C/c1cccs1,> 4 mM (inactive)
7,C=C1C2CC[C@@]3(C)[C@H](c4ccoc4)OC(=O)C[C@]13O[C@H]1CC(O)C(C)(C)C(CC(=O)OC)[C@@]21C (stereo partly specified),> 4 mM (inactive)
8,NC(=O)CCn1c(=O)oc2ccccc21,> 4 mM (inactive)
9,COc1cc(-c2coc3cc(OC)c(OC)c(OC)c3c2=O)cc(OC)c1OC,> 4 mM (inactive)
10,CC(=O)Nc1ccc2c(c1)n(C)c(=O)n2C,> 4 mM (inactive)
11,COC(=O)Nc1ccc2ncn(C)c(=O)c2c1,> 4 mM (inactive)
12,Cc1cc2nc(SCC(=O)O)nc(C)c2cc1C,> 4 mM (inactive)
13,COc1ccc(-c2cc(=O)c3cc(OC)ccc3o2)cc1,> 4 mM (inactive)
14,O=C1C2=C(SCCS2)C(=O)N1CCCO,> 4 mM (inactive)
15,Cc1cc(C)n(S(=O)(=O)c2cc(C)c(C)cc2C)n1,> 4 mM (inactive)
16,O=C1NC(=O)C(C2SC(=O)NC2=O)S1 (stereo unspecified),> 4 mM (inactive)
17,CCOCC(=O)NCc1n[nH]c(=O)c2ccccc12,> 4 mM (inactive)
18,CCC(C)C(=O)O[C@H]1[C@H](O)C2C(CN3CC(C)CCC3[C@@]2(C)O)C2C[C@]34O[C@]5(O)C(OC(=O)C(C)(O)C(C)O)CC[C@@]3(C)C5C(OC(C)=O)[C@@H](OC(C)=O)C4[C@@]21O (stereo partly specified),> 4 mM (inactive)
19,NCc1nnnn1-c1ccccc1,> 4 mM (inactive)
20,c1nnc2c3c4c(sc3ncn12)CCCC4,> 4 mM (inactive)
21,Cc1oc(S(=O)(=O)N2CCCCC2)cc1C(=O)O,> 4 mM (inactive)
22,CN(C)S(=O)(=O)c1ccc(NC=O)cc1,> 4 mM (inactive)
23,COc1ccc(Cl)c(S(=O)(=O)N2CCCC2)c1,> 4 mM (inactive)
24,O=C(O)CSCC(=O)Nc1cccc(O)c1,> 4 mM (inactive)

row,Compound,Kd
1,O=C(NS(=O)(=O)c1ccccc1)c1ccccc1F,> 4 mM (inactive)
2,C[n+]1cc2c3c(ccc2c2ccc4cc5c(cc4c21)OCO5)OCO3,> 4 mM (inactive)
3,O=C1CC[C@]23/C=C/C(=O)NCCCCNCCCNC(=O)/C=C/c4ccc(c2c4)O[C@@H]3C1,> 4 mM (inactive)
4,COc1cc(S(=O)(=O)N(C)C)ccc1F,> 4 mM (inactive)
5,Cc1ccc(Nc2nnns2)cc1C,> 4 mM (inactive)
6,Cc1ccc(N)nc1,> 4 mM (inactive)
7,O=C(O)CCCN1CNC(=S)NC1,> 4 mM (inactive)
8,S=C(NC1CC1)NN1CCOCC1,> 4 mM (inactive)
9,COC(=O)/C(C)=C\CC12OC(C)(C)C3CC(C=C4C(=O)c5c(OC)c6c(c(CC=C(C)C)c5OC431)OC(C)(CCC=C(C)C)C=C6)C2=O (stereo unspecified),> 4 mM (inactive)
10,O=C1NC(=S)N/C1=C/c1ccc(O)c(Cl)c1,> 4 mM (inactive)
11,O=C1CC(c2c[nH]c3ccccc23)C(=O)N1 (stereo unspecified),> 4 mM (inactive)
12,Cc1nnc(SCC(=O)N2CCc3ccccc32)s1,> 4 mM (inactive)
13,O=C(Nc1ccc2c(c1)OCO2)c1cccc(F)c1,> 4 mM (inactive)
14,O=S(=O)(Cc1ccccc1Cl)Nc1ccccn1,> 4 mM (inactive)
15,C[C@H]1CCCC(=O)CCC/C=C/c2cc(O)cc(O)c2C(=O)O1,> 4 mM (inactive)
16,Cn1nc(C(=O)NCc2cccnc2)c2ccccc2c1=O,> 4 mM (inactive)
17,O=c1[nH]cc(NCc2ccco2)c(=O)[nH]1,> 4 mM (inactive)
18,S=C(Nc1ccccc1)Nc1nncs1,> 4 mM (inactive)
19,CN=C(C)c1c(O)n(C)c(=O)n(C)c1=O,> 4 mM (inactive)
20,O=C(Nn1cnnc1)c1cc2c(s1)CCCCC2,> 4 mM (inactive)
